Assay results: ChEMBL document CHEMBL1909046, “DrugMatrix in vitro pharmacology data”

Assays:
[1] = biological target: T1, Alpha-1D adrenergic receptor (Homo sapiens, UniProt P25100); type: cell membranes, HEK293, Membrane; settings: hek293; also: in other assays of this panel Not Active means under 50% inhibition at 10 µM
T1 sequence (P25100 whole entry): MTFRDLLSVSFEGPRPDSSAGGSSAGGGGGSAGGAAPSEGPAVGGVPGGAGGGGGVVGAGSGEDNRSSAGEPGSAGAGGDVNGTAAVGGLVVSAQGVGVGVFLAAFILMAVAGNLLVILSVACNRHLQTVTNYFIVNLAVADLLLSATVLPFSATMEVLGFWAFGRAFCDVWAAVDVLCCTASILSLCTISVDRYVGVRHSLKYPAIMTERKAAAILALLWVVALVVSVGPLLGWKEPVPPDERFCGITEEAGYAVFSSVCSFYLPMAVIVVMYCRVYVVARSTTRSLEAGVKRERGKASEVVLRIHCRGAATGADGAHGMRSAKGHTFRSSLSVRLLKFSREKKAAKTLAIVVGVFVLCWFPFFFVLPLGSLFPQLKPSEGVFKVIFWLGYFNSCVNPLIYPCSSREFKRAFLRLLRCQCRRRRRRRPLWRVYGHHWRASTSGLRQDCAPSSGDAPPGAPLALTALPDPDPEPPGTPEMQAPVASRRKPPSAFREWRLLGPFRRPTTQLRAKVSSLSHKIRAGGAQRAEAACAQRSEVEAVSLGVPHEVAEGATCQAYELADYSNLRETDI

[2] = DRUGMATRIX: Glutamate, NMDA, Phencyclidine radioligand binding (ligand: [3H] TCP); type: cell membranes, Rattus norvegicus, Wistar, Cerebral cortex, Membrane; settings: Not Active = under 50% inhibition at 10 µM
Glycine receptor = Glycine receptor (Rattus norvegicus, UniProt P22771+P24524+P07727+P20781); type: cell membranes, Wistar, Spinal cord, Membrane; also: in other assays of this panel Not Active means under 50% inhibition at 10 µM
[3] = biological target: T2, Amine oxidase [flavin-containing] A (Homo sapiens, UniProt P21397); test: DRUGMATRIX: Monoamine Oxidase MAO-A enzyme inhibition (substrate: Kynuramine); parameters: species or system BTI-TN-5B1-4; settings: bti-tn-5b1-4; Not Active = under 50% inhibition at 10 µM
T2 sequence (P21397 whole entry): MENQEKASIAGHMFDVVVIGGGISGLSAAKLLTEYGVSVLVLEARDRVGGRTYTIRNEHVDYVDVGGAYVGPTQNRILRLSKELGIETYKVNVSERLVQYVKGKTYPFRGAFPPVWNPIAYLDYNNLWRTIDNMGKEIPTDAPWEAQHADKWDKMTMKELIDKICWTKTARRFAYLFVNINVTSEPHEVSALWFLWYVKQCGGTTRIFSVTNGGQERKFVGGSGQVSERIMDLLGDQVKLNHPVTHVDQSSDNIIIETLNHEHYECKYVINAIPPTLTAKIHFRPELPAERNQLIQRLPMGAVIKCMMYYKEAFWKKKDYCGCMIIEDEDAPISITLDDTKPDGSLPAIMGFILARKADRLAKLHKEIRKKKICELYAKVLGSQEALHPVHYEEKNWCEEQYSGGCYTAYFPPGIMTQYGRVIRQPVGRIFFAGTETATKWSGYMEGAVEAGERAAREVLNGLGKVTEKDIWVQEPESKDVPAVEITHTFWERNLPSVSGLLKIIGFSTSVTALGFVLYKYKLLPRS

[4] = biological target: 5-hydroxytryptamine receptor 6 (Homo sapiens, UniProt P50406); type: cell membranes, HeLa, Membrane; also: in other assays of this panel Not Active means under 50% inhibition at 10 µM
Sequence of 5-hydroxytryptamine receptor 6 (P50406 whole entry): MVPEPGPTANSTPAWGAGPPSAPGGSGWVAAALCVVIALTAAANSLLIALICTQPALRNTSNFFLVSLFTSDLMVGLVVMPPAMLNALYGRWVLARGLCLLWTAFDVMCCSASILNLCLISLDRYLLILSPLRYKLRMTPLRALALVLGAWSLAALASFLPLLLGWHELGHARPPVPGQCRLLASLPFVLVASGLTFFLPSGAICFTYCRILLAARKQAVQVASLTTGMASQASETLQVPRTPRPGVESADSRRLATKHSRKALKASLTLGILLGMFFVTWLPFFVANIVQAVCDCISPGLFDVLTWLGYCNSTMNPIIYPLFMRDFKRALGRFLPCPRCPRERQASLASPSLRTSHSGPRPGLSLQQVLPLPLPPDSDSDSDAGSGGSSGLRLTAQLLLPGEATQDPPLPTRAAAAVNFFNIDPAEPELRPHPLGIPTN

[5] = biological target: Mitogen-activated protein kinase 3 (Homo sapiens, UniProt P27361); test: DRUGMATRIX: Protein Serine/Threonine Kinase, ERK1 enzyme inhibition (substrate: Myelin Basic Protein); parameters: species or system Escherichia coli; settings: Not Active = under 50% inhibition at 10 µM
Sequence of Mitogen-activated protein kinase 3 (P27361 whole entry): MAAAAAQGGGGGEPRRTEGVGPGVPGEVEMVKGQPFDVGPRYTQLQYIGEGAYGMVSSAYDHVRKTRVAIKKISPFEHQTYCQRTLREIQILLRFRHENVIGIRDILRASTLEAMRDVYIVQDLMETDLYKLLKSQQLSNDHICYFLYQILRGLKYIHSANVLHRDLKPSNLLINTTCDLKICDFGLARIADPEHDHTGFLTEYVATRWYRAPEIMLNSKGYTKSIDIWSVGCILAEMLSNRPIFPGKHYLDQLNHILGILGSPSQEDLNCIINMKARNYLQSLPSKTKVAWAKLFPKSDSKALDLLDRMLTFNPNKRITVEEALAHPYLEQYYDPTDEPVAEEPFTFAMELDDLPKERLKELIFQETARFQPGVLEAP

[6] = DRUGMATRIX: Phosphodiesterase PDE3 enzyme inhibition (substrate: [3H]cAMP + cAMP); type: tissue-based, Homo sapiens; settings: platelet; Not Active = under 50% inhibition at 10 µM
[7] = biological target: cGMP-specific 3',5'-cyclic phosphodiesterase (Homo sapiens, UniProt O76074); test: DRUGMATRIX: Phosphodiesterase PDE5 enzyme inhibition (substrate: [3H]cGMP + cGMP); type: tissue-based; settings: platelet; Not Active = under 50% inhibition at 10 µM

Molecule | IC50 [1] | IC50 [2] | Ki [2] | IC50 (Glycine receptor) | IC50 [3] | IC50 ([4]; hela) | IC50 [5] | IC50 [6] | Ki [6] | IC50 [7] | IC50 ([4]; read-out: IC50) [µM] | Ki ([4]; read-out: Ki) [µM] | Ki [1] | Ki (Glycine receptor) | Ki [3] | Ki ([4]; hela) | Ki [5] | Ki [7]
O=c1[nH]c(=O)n([C@H]2C[C@H](O)[C@@H](CO)O2)cc1I [IDOXURIDINE] | Not Active | Not Active | Not Active | Not Active | Not Active | Not Active | Not Active | Not Active | Not Active | Not Active | – | – | – | – | – | – | – | –
CNNCc1ccc(C(=O)NC(C)C)cc1 [PROCARBAZINE] | Not Active | Not Active | Not Active | Not Active | Not Active | Not Active | Not Active | Not Active | Not Active | Not Active | – | – | – | – | – | – | – | –
CC(C)C(=O)Nc1ccc([N+](=O)[O-])c(C(F)(F)F)c1 [FLUTAMIDE] | Not Active | Not Active | Not Active | Not Active | Not Active | – | Not Active | Not Active | Not Active | Not Active | 17.8 | 8.27 | – | – | – | – | – | –
LEAD (II) ACETATE | Not Active | Not Active | Not Active | Not Active | Not Active | Not Active | Not Active | Not Active | Not Active | Not Active | – | – | Not Active | Not Active | Not Active | Not Active | Not Active | Not Active
C[C@H]1c2cccc(O)c2C(=O)C2=C(O)[C@]3(O)C(=O)C(C(N)=O)=C(O)[C@@H](N(C)C)[C@@H]3[C@@H](O)[C@@H]21.O [DOXYCYCLINE] | Not Active | Not Active | Not Active | Not Active | Not Active | Not Active | Not Active | Not Active | Not Active | Not Active | – | – | – | – | – | – | – | –
COc1ccc(C[C@H]2NC[C@H](O)[C@H]2OC(C)=O)cc1 [ANISOMYCIN] | Not Active | Not Active | Not Active | Not Active | Not Active | Not Active | Not Active | Not Active | Not Active | Not Active | – | – | Not Active | Not Active | Not Active | Not Active | Not Active | Not Active
